Source: patent US12521393B2, “Cytotoxicity targeting chimeras for CCR2-expressing cells” (GLAXOSMITHKLINE INTELLECTUAL PROPERTY DEVELOPMENT LIMITED, priority 2021, dated 2026)

How the values were obtained:
[1] = test system: endogenous target monocytes in human PBMC; test: PBMC ex vivo monocyte depletion flow cytometry assay (Example 200); type: cell-based; settings: with anti-cotinine antibody (SEQ ID NO: 11/12), 18-24 hours, EC50 in molar, read-out: Ex Vivo Depletion Assay pEC50 (converted)
Summary of the method: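 Monocyte depletion is reported as pEC50, averaged or given individually across runs, and read by flow cytometry staining CD45, CD14 and CD4 with a viability dye. Compounds, diluted four-fold over 11 points from 1 mM DMSO stocks, were combined with 30 μg/mL Fc-enhanced anti-cotinine antibody and human PBMC, then incubated 18-24 h at 37° C.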

[2] = target: anti-cotinine antibody (SEQ ID NO: 11/12, rabbit variable region with human IgG1 Fc DE mutation); test: SPR binding of anti-cotinine antibody to ARM compounds, Biacore T200, 37° C. (Example 202); settings: SPR Biacore T200, 37° C., pH 7.4, antibody SEQ ID NO: 11/12 captured on protein A; Kd in molar
Summary of the method: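 Antibody captured on a protein A chip; ARM compounds injected at 100 μL/min (200 s association, 2000 s dissociation), 3-fold 5-point series from 200 nM, at 37 °C in HEPES pH 7.4 buffer with 0.005% P20 and 1% DMSO. Double-referenced sensorgrams fit 1:1 for kon, koff, Kd (koff/kon), residence time (1/koff); pKd averaged across runs.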

Row | SMILES | EC50 [1] [nM] | pKd of Antibody for ARM Compound of Formula (I) [2]
1 | CCN1C(=O)C[C@H](C(=O)NCCOCCOCCOCCC(=O)N[C@H]2CC[C@@H](C(=O)N[C@@H]3C[C@H](NC(C)(C)C)CC[C@@H]3N3CC[C@H](Nc4ncnc5ccc(C(F)(F)F)cc45)C3=O)CC2)[C@H]1c1cccnc1 [Example 35, (2S,3S)-N-(2-(2-(2-(3-(((1S,4s)-4-(((1R,2S,5R)-5-(tert-butylamino)-2-((S)-2-oxo-3-((6-(trifluoromethyl)quinazolin-4-yl)amino)pyrrolidin-1-yl)cyclohexyl)carbamoyl)cyclohexyl)amino)-3-oxopropoxy)ethoxy)ethoxy)ethyl)-1-ethyl-5-oxo-2-(pyridin-3-yl)pyrrolidine-3-carboxamide] | 0.631 | 9.785
2 | CN1C(=O)C[C@H](C(=O)NCCOCCOCCOCCOCCOCCC(=O)N[C@@H]2C[C@H](NC(C)(C)C)CC[C@@H]2N2CC[C@H](Nc3ncnc4ccc(C(F)(F)F)cc34)C2=O)[C@H]1c1cccnc1 [Example 37, (2S,3S)-N-(18-(((1R,2S,5R)-5-(tert-Butylamino)-2-((S)-2-oxo-3-((6-(trifluoromethyl)quinazolin-4-yl)amino)pyrrolidin-1-yl)cyclohexyl)amino)-18-oxo-3,6,9,12,15-pentaoxaoctadecyl)-1-methyl-5-oxo-2-(pyridin-3-yl)pyrrolidine-3-carboxamide] | 5.01 | 9.7475
3 | CN1C(=O)C[C@H](C(=O)NCCOCCOCCOCCOCCOCCOCCC(=O)N[C@@H]2C[C@H](NC(C)(C)C)CC[C@@H]2N2CC[C@H](Nc3ncnc4ccc(C(F)(F)F)cc34)C2=O)[C@H]1c1cccnc1 [Example 38, (2S,3S)-N-(21-(((1R,2S,5R)-5-(tert-Butylamino)-2-((S)-2-oxo-3-((6-(trifluoromethyl)quinazolin-4-yl)amino)pyrrolidin-1-yl)cyclohexyl)amino)-21-oxo-3,6,9,12,15,18-hexaoxahenicosyl)-1-methyl-5-oxo-2-(pyridin-3-yl)pyrrolidine-3-carboxamide] | 1.58 | 9.611
4 | CC(C)N(C)[C@@H]1CC[C@H](N2CC[C@H](Nc3ncnc4ccc(C(F)(F)F)cc34)C2=O)[C@H](NC(=O)CCOCCOCCOCCOCCOCCNC(=O)[C@H]2CC(=O)N(C)[C@@H]2c2cccnc2)C1 [Example 40, (2S,3S)-N-(18-(((1R,2S,5R)-5-(Isopropyl(methyl)amino)-2-((S)-2-oxo-3-((6-(trifluoromethyl)quinazolin-4-yl)amino)pyrrolidin-1-yl)cyclohexyl)amino)-18-oxo-3,6,9,12,15-pentaoxaoctadecyl)-1-methyl-5-oxo-2-(pyridin-3-yl)pyrrolidine-3-carboxamide] | 5.01 | 9.4525
5 | CC(C)N(C)[C@@H]1CC[C@H](N2CC[C@H](Nc3ncnc4ccc(C(F)(F)F)cc34)C2=O)[C@H](NC(=O)CCOCCOCCOCCOCCOCCOCCNC(=O)[C@H]2CC(=O)N(C)[C@@H]2c2cccnc2)C1 [Example 41, (2S,3S)-N-(21-(((1R,2S,5R)-5-(isopropyl(methyl)amino)-2-((S)-2-oxo-3-((6-(trifluoromethyl)quinazolin-4-yl)amino)pyrrolidin-1-yl)cyclohexyl)amino)-21-oxo-3,6,9,12,15,18-hexaoxahenicosyl)-1-methyl-5-oxo-2-(pyridin-3-yl)pyrrolidine-3-carboxamide] | 2.51 | 9.3615
6 | CC(C)N(C)[C@@H]1CC[C@H](N2CC[C@H](Nc3ncnc4ccc(C(F)(F)F)cc34)C2=O)[C@H](NC(=O)C2CCC(NC(=O)CCOCCNC(=O)CCOCCNC(=O)[C@H]3CC(=O)N(C)[C@@H]3c3cccnc3)CC2)C1 (stereo partly drawn) [Example 48, (2S,3S)-N-(2-(3-((2-(3-(((1R,4r)-4-(((1R,2S,5R)-5-(Isopropyl(methyl)amino)-2-((S)-2-oxo-3-((6-(trifluoromethyl)quinazolin-4-yl)amino)pyrrolidin-1-yl)cyclohexyl)carbamoyl)cyclohexyl)amino)-3-oxopropoxy)ethyl)amino)-3-oxopropoxy)ethyl)-1-methyl-5-oxo-2-(pyridin-3-yl)pyrrolidine-3-carboxamide] | 2 | 8.975
7 | CC(C)N(C)[C@@H]1CC[C@H](N2CC[C@H](Nc3ncnc4ccc(C(F)(F)F)cc34)C2=O)[C@H](NC(=O)[C@H]2C[C@@H](NC(=O)CCOCCOCCNC(=O)CCNC(=O)[C@H]3CC(=O)N(C)[C@@H]3c3cccnc3)C2)C1 [Example 49, (2S,3S)-N-(3-((2-(2-(3-(((1S,3s)-3-(((1R,2S,5R)-5-(Isopropyl(methyl)amino)-2-((S)-2-oxo-3-((6-(trifluoromethyl)quinazolin-4-yl)amino)pyrrolidin-1-yl)cyclohexyl)carbamoyl)cyclobutyl)amino)-3-oxopropoxy)ethoxy)ethyl)amino)-3-oxopropyl)-1-methyl-5-oxo-2-(pyridin-3-yl)pyrrolidine-3-carboxamide] | 0.501 | 9.191
8 | CC(C)N(C)[C@@H]1CC[C@H](N2CC[C@H](Nc3ncnc4ccc(C(F)(F)F)cc34)C2=O)[C@H](NC(=O)[C@H]2CC[C@@H](NC(=O)CCCO[C@H]3CC[C@H](NC(=O)CCNC(=O)[C@@H]4CC(=O)N(C)[C@H]4c4cccnc4)CC3)CC2)C1 [Example 52, (2S,3S)-N-(3-(((1R,4S)-4-(4-(((1S,4S)-4-(((1R,2S,5R)-5-(Isopropyl(methyl)amino)-2-((S)-2-oxo-3-((6-(trifluoromethyl)quinazolin-4-yl)amino)pyrrolidin-1-yl)cyclohexyl)carbamoyl)cyclohexyl)amino)-4-oxobutoxy)cyclohexyl)amino)-3-oxopropyl)-1-methyl-5-oxo-2-(pyridin-3-yl)pyrrolidine-3-carboxamide] | 0.2 | 9.2545
9 | CC(C)N(C)[C@@H]1CC[C@H](N2CC[C@H](Nc3ncnc4ccc(C(F)(F)F)cc34)C2=O)[C@H](NC(=O)[C@H]2CC[C@H](NC(=O)CCOC[C@H]3CC[C@H](COCCNC(=O)[C@H]4CC(=O)N(C)[C@@H]4c4cccnc4)CC3)CC2)C1 [Example 53, (2S,3S)-N-(2-(((1R,4S)-4-((3-(((1R,4R)-4-(((1R,2S,5R)-5-(Isopropyl(methyl)amino)-2-((S)-2-oxo-3-((6-(trifluoromethyl)quinazolin-4-yl)amino)pyrrolidin-1-yl)cyclohexyl)carbamoyl)cyclohexyl)amino)-3-oxopropoxy)methyl)cyclohexyl)methoxy)ethyl)-1-methyl-5-oxo-2-(pyridin-3-yl)pyrrolidine-3-carboxamide] | 0.631 | 9.531
10 | CC(C)N(C)[C@@H]1CC[C@H](N2CC[C@H](Nc3ncnc4ccc(C(F)(F)F)cc34)C2=O)[C@H](NC(=O)[C@H]2CC[C@H](NC(=O)CCCOC[C@H]3CC[C@@H](COCCNC(=O)[C@H]4CC(=O)N(C)[C@@H]4c4cccnc4)CC3)CC2)C1 [Example 57, (2S,3S)-N-(2-(((1S,4R)-4-((4-(((1R,4R)-4-(((1R,2S,5R)-5-(Isopropyl(methyl)amino)-2-((S)-2-oxo-3-((6-(trifluoromethyl)quinazolin-4-yl)amino)pyrrolidin-1-yl)cyclohexyl)carbamoyl)cyclohexyl)amino)-4-oxobutoxy)methyl)cyclohexyl)methoxy)ethyl)-1-methyl-5-oxo-2-(pyridin-3-yl)pyrrolidine-3-carboxamide] | 1.58 | 9.685
11 | CC(C)N(C)[C@@H]1CC[C@H](N2CC[C@H](Nc3ncnc4ccc(C(F)(F)F)cc34)C2=O)[C@H](NC(=O)[C@H]2CC[C@@H](CC(=O)CCCOC[C@H]3CC[C@H](COCCNC(=O)[C@H]4CC(=O)N(C)[C@@H]4c4cccnc4)CC3)CC2)C1 [Example 60, (2S,3S)-N-(2-(((1R,4S)-4-(((5-((1S,4S)-4-(((1R,2S,5R)-5-(Isopropyl(methyl)amino)-2-((S)-2-oxo-3-((6-(trifluoromethyl)quinazolin-4-yl)amino)pyrrolidin-1-yl)cyclohexyl)carbamoyl)cyclohexyl)-4-oxopentyl)oxy)methyl)cyclohexyl)methoxy)ethyl)-1-methyl-5-oxo-2-(pyridin-3-yl)pyrrolidine-3-carboxamide] | 0.631 | 9.4635
12 | CC(C)N(C)[C@@H]1CC[C@H](N2CC[C@H](Nc3ncnc4ccc(C(F)(F)F)cc34)C2=O)[C@H](NC(=O)CCNC(=O)CCCOC[C@H]2CC[C@@H](COCCNC(=O)[C@H]3CC(=O)N(C)[C@@H]3c3cccnc3)CC2)C1 [Example 62, (2S,3S)-N-(2-(((1S,4R)-4-((4-((3-(((1R,2S,5R)-5-(Isopropyl(methyl)amino)-2-((S)-2-oxo-3-((6-(trifluoromethyl)quinazolin-4-yl)amino)pyrrrolidin-1-yl)cyclohexyl)amino)-3-oxopropyl)amino)-4-oxobutoxy)methyl)cyclohexyl)methoxy)ethyl)-1-methyl-5-oxo-2-(pyridin-3-yl)pyrrolidine-3-carboxamide] | 0.501 | 9.6305
